# According to the NIST ThermoML archive (doi:10.1016/j.jct.2018.08.021):
# ± gives the expanded uncertainty stated by the source.
# Test: osmotic coefficient (dimensionless); mn = molality of the nth substance listed, in mol/kg
# Settings: 303.15 K, 101.3 kPa, Liquid, Vapor-pressure osmometry (Knauer K-7000)
structure (smiles),measurement,setting,value
NC(=O)c1ccc[n+]([C@@H]2O[C@H](COP(=O)([O-])OP(=O)(O)OC[C@H]3O[C@@H](n4cnc5c(N)ncnc54)[C@H](O)[C@@H]3O)[C@@H](O)[C@H]2O)c1 [β-nicotinamide adenine dinucleotide] + O,osmotic coefficient,m1 = 0.0476,0.809 ± 0.064
same,osmotic coefficient,m1 = 0.0572,0.804 ± 0.065
same,osmotic coefficient,m1 = 0.0765,0.771 ± 0.066
same,osmotic coefficient,m1 = 0.0951,0.73 ± 0.067
